Experimental data published in ChEMBL document CHEMBL2202984, “16-morpholino quaternary ammonium steroidal derivatives as neuromuscular blocking agents: synthesis, biological evaluation and in silico probe of ligand-receptor interaction” (Eur J Med Chem, 2012).
Calls of active or inactive are those of the source. No cut-off for these calls is given here.

Legend:
[1] = (§1) Inhibition of nAChR-mediated twitch response in mouse hemidiaphragm
[2] = species on record: Mus musculus; assay: as §1
[3] = species on record: Mus musculus; assay: Inhibition of nAChR-mediated twitch response in mouse hemidiaphragm at IC90 in presence of neostigmine bromide

`CC(=O)O[C@H]1[C@@H]([N+]2(C)CCOCC2)C[C@H]2[C@@H]3CC[C@H]4C[C@H]([N+]5(C)CCCC5)CC[C@]4(C)[C@H]3CC[C@@]21C` gave an IC50 [1] of 18.6 µM.
Work on `CC(=O)O[C@H]1[C@@H]([N+]2(C)CCOCC2)C[C@H]2[C@@H]3CC[C@H]4C[C@H]([N+](C)(C)C)CC[C@]4(C)[C@H]3CC[C@@]21C` yielded an IC50 [1] of 17.4 µM.
`C=CC[N+]1([C@H]2C[C@H]3[C@@H]4CC[C@H]5C[C@H](O)[C@@H](N6CCOCC6)C[C@]5(C)[C@H]4CC[C@]3(C)[C@H]2OC(C)=O)CCCC1` [ROCURONIUM BROMIDE] showed an IC50 [1] of 2.5 µM and an IC90 [2] of 3.53 µM.
In the case of `C[C@]12CC[C@H]([N+](C)(C)Cc3ccccc3)C[C@@H]1CC[C@@H]1[C@@H]2CC[C@]2(C)[C@@H](O)[C@@H]([N+]3(C)CCOCC3)C[C@@H]12`, the IC50 [1] is reported as 18.5 µM.
Compound `C[C@]12CC[C@H]([N+]3(C)CCOCC3)C[C@@H]1CC[C@@H]1[C@@H]2CC[C@]2(C)[C@@H](O)[C@@H]([N+]3(C)CCOCC3)C[C@@H]12` has an IC50 [1] of 38.9 µM.
`CC(=O)O[C@H]1[C@@H]([N+]2(C)CCOCC2)C[C@H]2[C@@H]3CC[C@H]4C[C@@H]([N+](C)(C)c5ccccc5)CC[C@]4(C)[C@H]3CC[C@@]21C` gave an IC50 [1] of 12.7 µM and an IC90 [2] of 18.2 µM.
Compound `CC(=O)O[C@H]1[C@@H]([N+]2(C)CCOCC2)C[C@H]2[C@@H]3CC[C@H]4C[C@@H](N5CC[N+](C)(C)CC5)CC[C@]4(C)[C@H]3CC[C@@]21C` has an IC50 [1] of 13.1 µM and an IC90 [2] of 18.6 µM.
`CC(=O)O[C@H]1CC[C@@]2(C)[C@@H](CC[C@@H]3[C@@H]2CC[C@@]2(C)[C@H]3C[C@H]([N+]3(C)CCOCC3)[C@@H]2OC(C)=O)C1` gave an IC50 [1] of 19.8 µM and an IC90 [2] of 29.4 µM.
For `CC(=O)O[C@H]1[C@@H]([N+]2(C)CCOCC2)C[C@H]2[C@@H]3CC[C@H]4C[C@@H]([N+](C)(C)C)CC[C@]4(C)[C@H]3CC[C@@]21C`, the IC50 [1] was 16.6 µM and the IC90 [2] was 25 µM.
`C[C@]12CC[C@H]([N+](C)(C)c3ccccc3)C[C@@H]1CC[C@@H]1[C@@H]2CC[C@]2(C)[C@@H](O)[C@@H]([N+]3(C)CCOCC3)C[C@@H]12` showed an IC50 [1] of 16.2 µM.
Work on `CC(=O)O[C@H]1C[C@@H]2CC[C@@H]3[C@H](CC[C@@]4(C)[C@H]3C[C@H]([N+]3(C)CCCCC3)[C@@H]4OC(C)=O)[C@@]2(C)C[C@@H]1N1CCCCC1` [VECURONIUM BROMIDE] yielded an IC50 [1] of 0.31 µM and an IC90 [2] of 0.44 µM.
In the case of `C[C@]12CC[C@H](N3CC[N+](C)(C)CC3)C[C@@H]1CC[C@@H]1[C@@H]2CC[C@]2(C)[C@@H](O)[C@@H]([N+]3(C)CCOCC3)C[C@@H]12`, the IC50 [1] is reported as 24.5 µM.
Work on `CC(=O)O[C@H]1[C@@H]([N+]2(C)CCOCC2)C[C@H]2[C@@H]3CC[C@H]4C[C@@H]([N+]5(C)CCCC5)CC[C@]4(C)[C@H]3CC[C@@]21C` yielded an IC50 [1] of 10.7 µM and an IC90 [2] of 15.7 µM.
Work on `C[C@]12CC[C@H]([N+]3(C)CCCCC3)C[C@@H]1CC[C@@H]1[C@@H]2CC[C@]2(C)[C@@H](O)[C@@H]([N+]3(C)CCOCC3)C[C@@H]12` yielded an IC50 [1] of 13.6 µM.
`CC(=O)O[C@H]1[C@@H]([N+]2(C)CCOCC2)C[C@H]2[C@@H]3CC[C@H]4C[C@@H]([N+]5(C)CCOCC5)CC[C@]4(C)[C@H]3CC[C@@]21C` gave an IC50 [1] of 33.9 µM and an IC90 [2] of 50.7 µM.
In the case of `C[C@]12CC[C@H]([N+]3(C)CCCC3)C[C@@H]1CC[C@@H]1[C@@H]2CC[C@]2(C)[C@@H](O)[C@@H]([N+]3(C)CCOCC3)C[C@@H]12`, the IC50 [1] is reported as 27.6 µM.
With `CC(=O)O[C@H]1[C@@H]([N+]2(C)CCOCC2)C[C@H]2[C@@H]3CC[C@H]4C[C@H](N5CC[N+](C)(C)CC5)CC[C@]4(C)[C@H]3CC[C@@]21C` the IC50 [1] was 39.1 µM.
For `CC(=O)O[C@H]1[C@@H]([N+]2(C)CCOCC2)C[C@H]2[C@@H]3CC[C@H]4C[C@@H]([N+](C)(C)Cc5ccccc5)CC[C@]4(C)[C@H]3CC[C@@]21C`, the IC50 [1] was 4.54 µM, the IC90 [2] was 6.38 µM and the inhibition [3] was “inactive”.
`C[C@]12CC[C@H]([N+](C)(C)C)C[C@@H]1CC[C@@H]1[C@@H]2CC[C@]2(C)[C@@H](O)[C@@H]([N+]3(C)CCOCC3)C[C@@H]12` gave an IC50 [1] of 21.4 µM.
With `CC(=O)O[C@H]1[C@@H]([N+]2(C)CCOCC2)C[C@H]2[C@@H]3CC[C@H]4C[C@@H]([N+]5(C)CCCCC5)CC[C@]4(C)[C@H]3CC[C@@]21C` the IC50 [1] was 3.49 µM, the IC90 [2] was 5.46 µM and the inhibition [3] was “inactive”.
